From ChEMBL document CHEMBL1201862, “PubChem BioAssay data set” (2004)
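Grown in 96-well plates, cells were treated for 48 hours with each compound at five concentrations. Insufficient inhibition: endpoint recorded as highest concentration tested. GI50: concentration for 50% inhibition of growth.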 Active and inactive are the calls of the source. Cut-off read from the data, not from the text of the source: active = GI50 up to about 1.1 µM and inactive = higher.

Tests used:
Assay in all cases: NCI-60 cell line screen, 48 h
[1] = test system: ACHN
[2] = test system: CAKI-1
[3] = test system: CCRF-CEM
[4] = test system: EKVX
[5] = test system: HCC 2998
[6] = test system: HCT-15
[7] = test system: HOP-92
[8] = test system: Hs-578T
[9] = test system: IGROV-1
[10] = test system: KM12
[11] = test system: NCI-H23
[12] = test system: NCI-H522
[13] = test system: PC-3
[14] = test system: RPMI-8226
[15] = test system: SF-268
[16] = test system: SK-MEL-28
[17] = test system: SNB-75
[18] = test system: SW-620
[19] = test system: UACC-257
[20] = test system: UACC-62

Structure (SMILES)	GI50 [1]	GI50 [2]	GI50 [3]	GI50 [4]	GI50 [5]	GI50 [6] [µM]	GI50 [7]	GI50 [8]	GI50 [9]	GI50 [10]	GI50 [11]	GI50 [12]	GI50 [13]	GI50 [14]	GI50 [15]	GI50 [16]	GI50 [17]	GI50 [18]	GI50 [19]	GI50 [20]
Cc1cccc(/N=N/c2ccc(O)c(CN(C)C)c2)c1	8 µM (inactive)	20.7 µM (inactive)	0.0753 µM (active)	20.3 µM (inactive)	16.4 µM (inactive)	11.2	6.17 µM (inactive)	16 µM (inactive)	21.8 µM (inactive)	13.4 µM (inactive)	57.8 µM (inactive)	10.5 µM (inactive)	36.4 µM (inactive)	32 µM (inactive)	26.2 µM (inactive)	19.2 µM (inactive)	29 µM (inactive)	18.2 µM (inactive)	17.5 µM (inactive)	8.95 µM (inactive)
N=C(N)NS(=O)(=O)c1ccc(NC(=O)c2ccc3nc4ccccc4c(Nc4ccc(S(=O)(=O)N=C(N)N)cc4)c3c2)cc1	> 100 µM (inactive)	> 100 µM (inactive)	> 100 µM (inactive)	> 100 µM (inactive)	> 100 µM (inactive)	> 100	> 100 µM (inactive)	> 100 µM (inactive)	> 100 µM (inactive)	> 100 µM (inactive)	> 100 µM (inactive)	> 100 µM (inactive)	> 100 µM (inactive)	> 100 µM (inactive)	> 100 µM (inactive)	> 100 µM (inactive)	> 100 µM (inactive)	> 100 µM (inactive)	> 100 µM (inactive)	30.1 µM (inactive)
CC(NC1=CC(=O)c2cccnc2C1=O)C(O)c1ccccc1 (stereo not given)	2.05 µM (inactive)	1.32 µM (inactive)	4.02 µM (inactive)	6.04 µM (inactive)	3.1 µM (inactive)	1.37	9.73 µM (inactive)	2.53 µM (inactive)	1.28 µM (inactive)	3.97 µM (inactive)	1.06 µM (active)	1.42 µM (inactive)	1.65 µM (inactive)	2.09 µM (inactive)	2.36 µM (inactive)	1.62 µM (inactive)	1.35 µM (inactive)	1.66 µM (inactive)	1.23 µM (inactive)	1.65 µM (inactive)
CN(C)CCCNc1ccc2nnn3c4ccc([N+](=O)[O-])cc4c(=O)c1c23	0.542 µM (active)	1.73 µM (inactive)	0.785 µM (active)	2.56 µM (inactive)	2.23 µM (inactive)	0.916	1.57 µM (inactive)	3.81 µM (inactive)	1.95 µM (inactive)	0.986 µM (active)	2.03 µM (inactive)	1.63 µM (inactive)	1.28 µM (inactive)	0.946 µM (active)	1.14 µM (inactive)	4.6 µM (inactive)	1.51 µM (inactive)	0.45 µM (active)	3.4 µM (inactive)	4.33 µM (inactive)
COc1cc(Nc2nc3c(N)cc(C(F)(F)F)cc3nc2-c2ccccc2)cc(OC)c1OC	42.9 µM (inactive)	45.4 µM (inactive)	> 100 µM (inactive)	> 100 µM (inactive)	> 100 µM (inactive)	> 94.6	1.39 µM (inactive)	22.3 µM (inactive)	55.3 µM (inactive)	72.8 µM (inactive)	70.3 µM (inactive)	28.4 µM (inactive)	37.2 µM (inactive)	> 100 µM (inactive)	33.4 µM (inactive)	57 µM (inactive)	17 µM (inactive)	> 90.4 µM (inactive)	63 µM (inactive)	43.1 µM (inactive)
